{"source": "patent US20250020658A1", "about": "“METHODS FOR SYNTHESIZING AND IDENTIFYING SYNTHETIC PROTEINS INCLUDING TARGETED THERAPEUTICS FOR NEURODEGENERATIVE DISORDERS BASED ON BIO-MIMICRY APPROACHES” (University of Denver, priority 2023, published 2025)", "key": {"[1]": {"molecular_target": "α-Synuclein (αS) aggregation (Homo sapiens, UniProt P37840)", "experiment": "Thioflavin T (ThT) dye-based aggregation assay against aggregation of αS", "assay_type": "biochemical", "conditions": "lower ThT intensity = higher antagonist activity", "excerpt": "The resulting dimers are again evaluated with a ThT assay (step (g)), and the best performing dimer is selected in a step (h). The process is repeated to screen for the best performing trimer (step (i)), and so on.\nIn particular, FIG. 21 is a graph comparing the relative ThT intensities of various molecules synthesized using the 2D FAST process, in accordance with embodiments. The lower the ThT intensity, the higher the antagonist activity of ligands against the target protein (synuclein aggregation in this example)."}, "C. elegans PD models": {"test_system": "C. elegans PD models", "experiment": "C. elegans Parkinson's disease models", "assay_type": "in vivo", "conditions": "for rescue of PD phenotypes: multiple C. elegans PD models: degeneration of dopaminergic neurons, increase in reactive oxygen species, reduced motility", "excerpt": "Using OPs as the basis, the 2D FAST approach was used to identify potent antagonists of α-Synuclein (αS) aggregation, a process central to Parkinson's disease (PD) as discussed above. […] (See, for example, “A 2D Fragment-Assisted Protein Mimetic Approach to Rescue α-Synuclein Aggregation Mediated Early and Post-Disease Parkinson's Phenotypes,” bioRxiv preprint posted 2022 Jul. 13, doi: https://doi.org/10.1101/2022.07.11.499659)"}, "[2]": {"experiment": "Parallel Artificial Membrane Permeability Assay (PAMPA)", "assay_type": "in vitro ADME", "conditions": "NS163 compared with NS132", "excerpt": "FIG. 22 is a graph comparing the cell permeability of various ligands identified and synthesized using the 2D FAST approach and assessed using the Parallel Artificial Membrane Permeability Assay (PAMPA) technique. […] FIG. 25 is a graph comparing the relative ThT intensities of various molecules synthesized using the 2D FAST process in the presence of αS, in accordance with embodiments."}, "αS oligomers": {"molecular_target": "αS oligomers (Homo sapiens, UniProt P37840)", "conditions": "pathological high molecular weight αS oligomers vs αS monomers (native conformation), cited from earlier work"}, "[3]": {"conditions": "mouse model; cited from earlier work"}}, "note": "Entries after “also recorded” stand apart in the source; their conditions may differ. Where two headings read alike, the source gives them in different places.", "data": [{"smiles": "Cc1ccc(NC(=O)c2ccc([N+](=O)[O-])c(NCC3CCCCC3)n2)c(OCC(=O)O)n1", "note": "[NS55]", "values": [{"measurement": "antagonist activity against αS aggregation", "setting": "[1]", "result": "potent inhibitor of α-Synuclein aggregation"}]}, {"smiles": "Cc1ccc(NC(=O)c2ccc(NC(=O)c3ccc([N+](=O)[O-])c(NCCc4c[nH]c5ccccc45)n3)c(NCC3CCCCC3)n2)c(OCC(=O)O)n1", "note": "[NS132]", "values": [{"measurement": "antagonist activity against αS aggregation", "setting": "[1]", "result": "most potent tripyridyl; also recorded: antagonist of the multiple facets of αS aggregation"}, {"measurement": "rescue of PD phenotypes", "setting": "C. elegans PD models", "result": "very effective ligands in rescuing PD phenotypes"}]}, {"smiles": "Cc1ccc(NC(=O)c2ccc(NC(=O)c3ccc([N+](=O)[O-])c(NCCc4c[nH]c5ccccc45)n3)c(NCC3CCCCC3)n2)c(OCC(=O)NO)n1", "note": "[NS163]", "values": [{"measurement": "antagonist activity against αS aggregation", "setting": "[1]", "result": "potent antagonist of α-Synuclein aggregation; also recorded: without sacrificing activity"}, {"measurement": "activity within a C. elegans Parkinson's disease model", "setting": "C. elegans PD models; NS163 as enhanced version of NS132", "result": "increased cell permeability and activity"}, {"measurement": "rescue of PD phenotypes", "setting": "C. elegans PD models", "result": "very effective ligands in rescuing PD phenotypes"}, {"measurement": "cell permeability", "setting": "[2]", "result": "increased cell permeability; also recorded: better cell permeability"}]}, {"smiles": "COC(=O)c1cc(OCC(=O)O)c2cccc(NC(=O)c3cc(OC(C)C)c4cccc(NC(=O)c5cc(OCC(=O)O)c6cccc(NC(=O)c7cc(OC(C)C)c8cccc([N+](=O)[O-])c8n7)c6n5)c4n3)c2n1", "note": "[SK-129]", "values": [{"measurement": "affinity to αS oligomers relative to αS monomers", "setting": "αS oligomers", "result": 10, "unit": "fold"}, {"measurement": "affinity to αS oligomers relative to αS monomers", "setting": "αS oligomers; listed as SK-α129", "result": "ten-fold higher affinity"}, {"measurement": "crossing of the BBB", "setting": "[3]", "result": "efficiently crosses the BBB"}, {"measurement": "toxicity", "setting": "[3]", "result": "without demonstrating any toxicity"}]}]}
